Laboratory results as given in patent US7192614B2, “Compositions and methods of treatment to alleviate or prevent migrainous headaches and their associated symptoms” (GelStat Corporation, priority 2002, dated 2007).

Columns and labels:
migraine = conditions: cited from earlier work
migraine headache = assay: Individual case reports, acute sublingual treatment of migraine headache (Examples 1-8, 10); type: in vivo, human; conditions: single subject
Procedure: A person in otherwise good health had suffered for years with consistently recurring migraine headaches, frequency approximately 1–3 times per month, average duration 4–12 hours, which headaches had proven refractory to standard pharmacological treatment. These migraine headaches were often accompanied by nausea, and infrequently by vomiting. Each occurrence of migraine headache rendered the individual unable to participate in the normal activities of daily living, both socially and professionally. Absenteeism from work and missed social engagements resulted from their frequent need to ensconce themself in a darkened, quiet room where they would ‘wait out’ the headache. The frequency and unpredictability of the migraine headaches caused substantial impairment even between events, this impairment associated with anxiety and the inability to plan any event with confidence. This individual used the present invention in a two (2) part sublingual administration regimen, wherein a first composition is administered sublingually, and allowed to reside under the tongue for a period of about sixty (60) seconds. A second identical composition is administered, following the start of administration of the first composition by approximately five (5) minutes. […]

[1] = 5 mg, placebo-controlled 2-attack study
[2] = doses > or = 2.5 mg, Rapoport 1997

| Compound | pain free at 2 hours postdose (migraine; 5 mg) | pain-free response at 1 hour postdose (migraine; 5 mg) | sustained pain-free response at 24 hours (migraine; 5 mg) | headache response at 30 minutes (migraine; [1]) | headache response at 2 hours (migraine; [1]) | 1 Hour headache response (migraine; Table 2, literature values) | 2 Hour complete headache response (migraine; Table 2, literature values) | 2 Hour headache response (migraine; Table 2, literature values) | 2 hour pain free (migraine; Table 2, literature values) | 2 hour sustained pain free (migraine; Table 2, literature values) [%^9] | headache response rate at 1 hour (migraine; [2]) [%] | headache response rate at 2 hours (migraine; [2]) [%] | subject-reported side effects (migraine headache) | subject-reported relief of migraine headache and associated symptoms (migraine headache; two part sublingual regimen) |
| --- | --- | --- | --- | --- | --- | --- | --- | --- | --- | --- | --- | --- | --- | --- |
| CN(C)CCc1c[nH]c2ccc(C[C@H]3COC(=O)N3)cc12 [Zolmitriptan] | 31.1 % of attacks | 10.6 % of attacks | ^9Among attacks treated with ZOMIG-ZMT 5 mg, a sustained pain-free response at 24 hours was achieved in 22.2% of attacks compared to 8.2% for placebo (P < .0001)^1 also unpublished data, see same web address as for #5 | 16.5 % of attacks | 59 % of attacks | 44%^1 | 40–45%^6,7 | 66%^2,3,4 | 27–33%^8 | 31 | 44 to 51 | 65 to 67 |  |  |
| CNS(=O)(=O)Cc1ccc2[nH]cc(CCN(C)C)c2c1 [Sumatriptan] |  |  |  |  |  | 20% | 36% | 59% | 29% |  |  |  | “weakness” and “exhaustion” | moderate success |
